Measured values published in US20180340008A1, “ANTIBIOTIC OLIGOPEPTIDE MIMETICS” (priority 2017, published 2018).
Where a name gives a salt, the structure may show the parent alone. Non-standard residues stand in square brackets, D forms with d. Residues, ends and D or L forms follow the SMILES beside them. ξ: configuration not given here. *: point of attachment. ξW = NC(Cc1c[nH]c2ccccc12)C(=O)O; NHOH = ON*

System: E. coli (ATTC 8739)
Assay: Zone of inhibition test in Petri dish
Format: cell-based
Protocol: Compound A was tested against L-phenylalanine-(S)-2-amino-N-hydroxy-4-(methylthio)butanamide hydrochloride (Example 3) in a side-by-side comparison in a conventional zone of inhibition test. In this test, both compounds were compared at various concentrations against E. coli (ATTC 8739) grown in a Petri dish using the antibiotic kanamycin as a control.

| SMILES | strength of zone of inhibition (at 50 μg) | concentration at which a zone of inhibition was shown (Petri dish, kanamycin control, FIG. 1A/1B) [µg] | strength of zone of inhibition compared with cpd. A at 50 μg (at 12.5 μg) |
| --- | --- | --- | --- |
| CSCC[C@H](NC(=O)CN)C(=O)NO [Compound A, reference compound] | quite weak |  |  |
| CSCC[C@H](NC(=O)C(N)Cc1c[nH]c2ccccc12)C(=O)NO (stereo partly drawn) [Example 3, L-Tryptophan-(S)-2-amino-N-hydroxy-4-(methylthio)butanamide hydrochloride] (H-[ξW]-Met-{NHOH}) |  | 12.5 | substantially stronger |
